In PubChem BioAssay AID1259411 (Chemical Carcinogenesis Research Information System (CCRIS), 2018):
Calls of active or inactive are those of the source. No rule for the calls is given here.

Test system: rodent carcinogenicity bioassays, tumor incidence
Assay: CCRIS carcinogenicity studies
Method in brief: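 Archive of carcinogenicity, mutagenicity, tumor promotion and tumor inhibition results drawn from journals, NCI reports and other sources, expert-reviewed; covers 1985-2011 and is no longer updated.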

SMILES: ClC(Cl)Cl
- carcinogen call (Species: FISH, Strain/Sex: ORYZIPIAS LATIPES/FEMALE, Route: IMMERSION, Dose: 0, 0.017, 0.151, 1.463 MG/L AQUEOUS SOLUTION FOR 6 MO (STUDY DURATION: 6 MO), Dose: 0, 0.017, 0.151, 1.463 MG/L AQUEOUS SOLUTION FOR 6 MO (STUDY DURATION: 6 MO)): inactive; negative
- carcinogen call (Species: FISH, Strain/Sex: ORYZIPIAS LATIPES/FEMALE, Route: IMMERSION, Dose: 0, 0.017, 0.151, 1.463 MG/L AQUEOUS SOLUTION FOR 9 MO (STUDY DURATION: 9 MO), Dose: 0, 0.017, 0.151, 1.463 MG/L AQUEOUS SOLUTION FOR 9 MO (STUDY DURATION: 9 MO)): inactive; negative
- carcinogen call (Species: FISH, Strain/Sex: ORYZIPIAS LATIPES/MALE, Route: IMMERSION, Dose: 0, 0.017, 0.151, 1.463 MG/L AQUEOUS SOLUTION FOR 6 MO (STUDY DURATION: 6 MO), Dose: 0, 0.017, 0.151, 1.463 MG/L AQUEOUS SOLUTION FOR 6 MO (STUDY DURATION: 6 MO)): inactive; negative
- carcinogen call (Species: FISH, Strain/Sex: ORYZIPIAS LATIPES/MALE, Route: IMMERSION, Dose: 0, 0.017, 0.151, 1.463 MG/L AQUEOUS SOLUTION FOR 9 MO (STUDY DURATION: 9 MO), Dose: 0, 0.017, 0.151, 1.463 MG/L AQUEOUS SOLUTION FOR 9 MO (STUDY DURATION: 9 MO)): inactive; negative
- carcinogen call (Species: MOUSE, Strain/Sex: B6C3F1/FEMALE, Route: ORAL, Dose: 0, 200, 400, 900, 1800 MG/L IN DRINKING WATER FOR 104 WK (STUDY DURATION: 24 MO), Dose: 0, 200, 400, 900, 1800 MG/L IN DRINKING WATER FOR 104 WK (STUDY DURATION: 24 MO)): inactive; negative
- carcinogen call (Species: MOUSE, Strain/Sex: B6C3F1/FEMALE, Route: ORAL, Dose: 0, 200, 400, 900, 1800 ML/L IN DRINKING WATER FOR AN AVERAGE DOSE OF 0, 34, 65, 130, 263 MG/KG BW/D FOR 104 WK (STUDY DU, Dose: 0, 200, 400, 900, 1800 ML/L IN DRINKING WATER FOR AN AVERAGE DOSE OF 0, 34, 65, 130, 263 MG/KG BW/D FOR 104 WK (STUDY DU): inactive; negative
- carcinogen call (Species: MOUSE, Strain/Sex: B6C3F1/MALE,FEMALE, Route: GAVAGE, Tumor Site: Type of Lesion: LIVER: HEPATOCELLULAR CARCINOMA): active; positive
- carcinogen call (Species: MOUSE, Strain/Sex: BDF1/FEMALE, Route: INHALATION, Dose: 0, 5, 30, 90 PPM IN AIR, 6 HR/D, 5 D/WK FOR 104 WK (STUDY DURATION: 104 WK), Dose: 0, 5, 30, 90 PPM IN AIR, 6 HR/D, 5 D/WK FOR 104 WK (STUDY DURATION: 104 WK), Tumor Site: Type of Lesion: LIVER: HEPATOCELLULAR CARCINOMA, HEPATOCELLULAR CARCINOMA AND ADENOMA): active; positive
- carcinogen call (Species: MOUSE, Strain/Sex: BDF1/MALE, Route: INHALATION, Dose: 0, 5, 30, 90 PPM IN AIR, 6 HR/D, 5 D/WK FOR 104 WK (STUDY DURATION: 104 WK), Dose: 0, 5, 30, 90 PPM IN AIR, 6 HR/D, 5 D/WK FOR 104 WK (STUDY DURATION: 104 WK), Tumor Site: Type of Lesion: LIVER: HEPATOCELLULAR CARCINOMA, HEPATOCELLULAR CARCINOMA AND ADENOMA, KIDNEYS: RENAL CELL CARCINOMA, RENAL CELL ADENOMA): active; positive
- carcinogen call (Species: RAT, Strain/Sex: F344/DUCRJ/MALE, Route: INHALATION, Dose: 0;25, 50, 100 PPM VAPOR CHAMBER 6 HR/D, 5 D/WK FOR 104 WK (STUDY DURATION: 104 WK), Dose: 0;25, 50, 100 PPM VAPOR CHAMBER 6 HR/D, 5 D/WK FOR 104 WK (STUDY DURATION: 104 WK)): inactive; negative
- carcinogen call (Species: RAT, Strain/Sex: F344/DUCRJ/MALE, Route: ORAL AND INHALATION, Dose: 0, 1,000 PPM IN DRINKING WATER AND 0, 25, 50, 100 PPM VAPOR CHAMBER 6 HR/D, 5 D/WK , BOTH FOR 104 WK (STUDY DURATION: 10, Dose: 0, 1,000 PPM IN DRINKING WATER AND 0, 25, 50, 100 PPM VAPOR CHAMBER 6 HR/D, 5 D/WK , BOTH FOR 104 WK (STUDY DURATION: 10, Tumor Site: Type of Lesion: KIDNEY: ADENOMA, CARCINOMA, THYROID: ADENOMA, CARCINOMA): active; positive
- carcinogen call (Species: RAT, Strain/Sex: F344/DUCRJ/MALE, Route: ORAL, Dose: 0, 1,000 PPM IN DRINKING FOR 104 WK (STUDY DURATION: 104 WK)): inactive; negative
- carcinogen call (Species: RAT, Strain/Sex: F344/FEMALE, Route: INHALATION, Dose: 0, 10, 30, 90 PPM IN AIR, 6 HR/D, 5 D/WK FOR 104 WK (STUDY DURATION: 104 WK), Dose: 0, 10, 30, 90 PPM IN AIR, 6 HR/D, 5 D/WK FOR 104 WK (STUDY DURATION: 104 WK)): inactive; negative
- carcinogen call (Species: RAT, Strain/Sex: F344/MALE, Route: INHALATION, Dose: 0, 10, 30, 90 PPM IN AIR, 6 HR/D, 5 D/WK FOR 104 WK (STUDY DURATION: 104 WK), Dose: 0, 10, 30, 90 PPM IN AIR, 6 HR/D, 5 D/WK FOR 104 WK (STUDY DURATION: 104 WK)): inactive; negative
- carcinogen call (Species: RAT, Strain/Sex: OSBORNE-MENDEL/MALE, Route: GAVAGE, Tumor Site: Type of Lesion: KIDNEY: ADENOMA, CARCINOMA): active; positive
- carcinogen call (Species: RAT, Strain/Sex: OSBORNE-MENDEL/MALE, Route: ORAL, Dose: 0, 200, 400, 900, 1800 MG/L IN DRINKING WATER FOR 104 WK (STUDY DURATION: 24 MO), Dose: 0, 200, 400, 900, 1800 MG/L IN DRINKING WATER FOR 104 WK (STUDY DURATION: 24 MO), Tumor Site: Type of Lesion: KIDNEY: TUBULAR CELL CARCINOMA OR ADENOCARCINOMA, TUBULAR CELL CARCINOMA, ADRENAL GLAND: CORTICAL ADENOMA, PHEOCHROMOCYT): active; positive
- carcinogen call (Species: RAT, Strain/Sex: OSBORNE-MENDEL/MALE, Route: ORAL, Dose: 0, 200, 400, 900, 1800 ML/L IN DRINKING WATER FOR AN AVERAGE DOSE OF 0, 19, 38, 81, 160 MG/KG BW/D FOR 104 WK (STUDY DUR, Dose: 0, 200, 400, 900, 1800 ML/L IN DRINKING WATER FOR AN AVERAGE DOSE OF 0, 19, 38, 81, 160 MG/KG BW/D FOR 104 WK (STUDY DUR, Tumor Site: Type of Lesion: KIDNEY (TUBULAR CELL): ADENOMA OR ADENOCARCINOMA): active; positive
- carcinogen call (Species: RAT, Strain/Sex: WISTAR/FEMALE, Route: ORAL, Dose: 0, 2 ML/L (24 MILLIMOLAR) IN DRINKING WATER FOR 72 WK THEN DOSE HALVED FOR DURATION OF STUDY (STUDY DURATION: LIFETIME), Tumor Site: Type of Lesion: LIVER: NEOPLASTIC NODULES): active; positive
- carcinogen call (Species: RAT, Strain/Sex: WISTAR/MALE, Route: ORAL, Dose: 0, 2 ML/L (24 MILLIMOLAR) IN DRINKING WATER FOR 72 WK THEN DOSE HALVED FOR DURATION OF STUDY (STUDY DURATION: LIFETIME)): inactive; negative
- carcinogen call (Species: Rat, Strain/Sex: F344/DuCrj/ Male (50 per group), Route: Inhalation and oral (drinking water), Dose: 0, 25, 50, 100 ppm in air, 6 hr/d, 5 d/wk for 104 wk, each group also given chloroform-formulated drinking water (1000 p, Dose: 0, 25, 50, 100 ppm in air, 6 hr/d, 5 d/wk for 104 wk, each group also given chloroform-formulated drinking water (1000 p, Tumor Site: Type of Lesion: KIDNEY: renal-cell adenomas and carcinomas): active; positive, positive trend; significant increase in high dose group; exposure leve
- carcinogen call (Species: Rat, Strain/Sex: F344/DuCrj/ Male (50 per group), Route: Inhalation, Dose: 0, 25, 50, 100 ppm in air, 6 hr/d, 5 d/wk for 104 wk, Dose: 0, 25, 50, 100 ppm in air, 6 hr/d, 5 d/wk for 104 wk, Tumor Site: Type of Lesion: KIDNEY: one renal-cell adenoma in the high dose group): inactive; negative

SMILES: CN(C)C(=O)NN=O
- carcinogen call (Species: HAMSTER, Strain/Sex: SYRIAN/FEMALE, Route: SUBCUTANEOUS, Dose: 40 MG/KG 1/WK, Tumor Site: Type of Lesion: FORESTOMACH: SQUAMOUS CELL CARCINOMA, MAMMARY GLAND: ADENOCARCINOMA OR ADENOACANTHOMA, UTERUS: ADENOACANTHOMA, Tumor Site: Type of Lesion: FORESTOMACH: SQUAMOUS CELL CARCINOMA, MAMMARY GLAND: ADENOCARCINOMA OR ADENOACANTHOMA, UTERUS: ADENOACANTHOMA): active; positive
- carcinogen call (Species: HAMSTER, Strain/Sex: SYRIAN/MALE, Route: SUBCUTANEOUS, Dose: 40 MG/KG 1/WK, Tumor Site: Type of Lesion: FORESTOMACH: SQUAMOUS CELL CARCINOMA): active; positive
- carcinogen call (Species: MOUSE, Strain/Sex: C3H/FEMALE, Route: SUBCUTANEOUS, Dose: 80 MG/KG 1/WK (TOTAL AVE DOSE 1015 MG/KG), Tumor Site: Type of Lesion: LYMPHATIC SYSTEM: MALIGNANT LYMPHOMA): active; positive
- carcinogen call (Species: MOUSE, Strain/Sex: C3H/MALE, Route: SUBCUTANEOUS, Dose: 80 MG/KG 1/WK (TOTAL AVE DOSE 1073 MG/KG), Tumor Site: Type of Lesion: LYMPHATIC SYSTEM: MALIGNANT LYMPHOMA): active; positive
